Experimental data as given in article PMC6154694, “Absorption, Metabolic Stability, and Pharmacokinetics of Ginger Phytochemicals” (Molecules : A Journal of Synthetic Chemistry and Natural …, 2017).

Columns and labels:
[1] = Mouse pharmacokinetic study of oral GE with and without ketoconazole, plasma with and without β-glucuronidase treatment; format: in vivo, male mice (C57BL6J); conditions: for Concentration Ratio (Total/Free) of GE Phenolics: GE administered group; for Concentration Ratio (Total/Free) of GE Phenolics / concentration at 0 h / concentration at 0.087 h / concentration at 0.167 h / concentration at 0.25 h / concentration at 0.5 h / concentration at 1 h / concentration at 2 h / concentration at 3 h / concentration at 4 h / concentration at 6 h / concentration at 8 h / concentration at 12 h: mouse plasma; for concentration at 0 h / concentration at 0.087 h / concentration at 0.167 h / concentration at 0.25 h / concentration at 0.5 h / concentration at 1 h / concentration at 2 h / concentration at 3 h / concentration at 4 h / concentration at 6 h / concentration at 8 h / concentration at 12 h: −βgd
Protocol: A solution formulation of GE was prepared by using 5% ethanol, 5% Tween 80, 40% polyethylene glycol, and 50% corn oil. The dose volume was 10 mL/kg and the dose administered was 250 mg/kg GE.
Pharmacokinetic study in male mice (C57BL6J, Harlan Laboratories, Indianapolis, IN, USA) was run with 36 animals in each group at a GE dose of 250 mg/kg with a dose volume of 10 mL/kg. One group was given GE alone and in the second group GE was co-administered with KTZ (50 mg/kg). A terminal sampling design was used to collect blood samples at 0 (pre-dose), 0.08, 0.16, 0.25, 0.5, 1, 2, 3, 4, 6, 8, and 12 h. At each time, 1 mL of blood was collected in ethylenediaminetetraacetic acid di-potassium salt (K2EDTA) tubes (BD Biosciences, Franklin Lakes, NJ, USA). Plasma was separated by centrifugation of samples at 4000 rpm for 10 min and stored below −60 °C till bioanalysis. All experiments were performed with approval from the Institutional Animal Care and Use Committee (IACUC, approval code: A14031). All animals were acclimatized for five days before dosing in the experimental area. Food and water was provided ad libitum throughout the study period. Animals were marked and housed (three per cage, n = 36 per group) in polypropylene cages and maintained in controlled environmental conditions with 12 h light and dark cycles. The temperature and humidity of the room was maintained between 22 ± 3 °C and 30% to 50%, respectively, and approximately 10–12 fresh air change cycles per hour.
To confirm the presence of GE glucuronide conjugates, plasma (100 μL) was treated with βgd (20 μL, 500 units) and incubated at 37 °C for 1 h. Each sample was analyzed twice with and without β-gd treatment. Samples without gde treatment were diluted with 20 μL of buffer. Total (conjugated + free) and free ginger phenolics data were reported following bioanalysis.
All in vitro and in vivo samples were processed by protein precipitation method. An aliquot (100 μL) of the sample was spiked with 200 μL of acetonitrile containing dihydrocapsaicin as internal standard (IS) and vortex mixed for 3 min. The tubes were centrifuged at 12,000 rpm for 10 min and an aliquot of supernatant was transferred into autosampler vials for analysis. The stock solutions of 6G, 8G, 10G, and 6S were prepared in ACN/water (70:30) at 1 mg/mL. A calibration curve (CC) range of 2–2000 ng/mL was employed for the quantification of analytes and IS concentration was 150 ng/mL for each analysis. The CC consisted of blank, blank with IS and seven non-zero calibration standards. The calibration standards were within ±15% of the nominal concentration and lower limit of quantification was within ±20% of nominal. All samples were analyzed using liquid chromatography tandem mass spectrometry (LC-MS/MS) method (Agilent 6410 series, Santa Clara, CA, USA). A positive ionization mode with multiple reaction monitoring (MRM, m/z Q1/Q3) of 6G (m/z 277.1/177.1, retention time (RT) 2.0 min), 8G (m/z 305.1/177.1, RT 4.0 min), 10G (m/z 333.1/177.1, RT 7.7 min), 6S (m/z 277.1/137.1, RT 5.1 min), and IS (m/z 308.2/137.1, RT 3.4 min) was employed. The ion spray voltage was set at 3500 V, ionization temperature was set to 300 °C and drying gas flow rate was 10 L/min. Data acquisition and quantitation were performed using Mass Hunter software (Agilent Technologies, Wilmington, DE, USA). Separation was achieved using HP1100 series LC (Agilent Technologies) with an Agilent Zorbax reversed-phase (SB-C18, 2.1 × 50 mm, 5.0 μm) column. A gradient method was employed to separate the individual GE phenolics using mobile phase A (0.1% formic acid in water) and mobile phase B (Acetonitrile). The gradient elution method with 50% B at 0 min, 90% B at 5 min, held for 2.1 min, back to 50% B at 7.1 min with a flow rate of 0.2 mL/min. An injection volume of 2 μL was used for analysis. […]

[2] = Liver microsomal stability, mouse; format: in vitro ADME, CD1 mouse; conditions: protein 0.5 mg/mL
Protocol: (§1) Pooled liver microsomes from CD1 mouse, IGS Sprague-Dawley rat, Beagle dog, and mixed gender human were used for assays. Incubations (1 mL) consisted of liver microsomes (0.5 mg/mL), NADPH (1 mM) and 100 mM sodium phosphate buffer (pH 7.4). Following pre-incubation (10 min, 37 °C), reactions were initiated by spiking ACN/DMSO (80:20) stock solutions of GE phenolics (5 μL, 10 μM). Samples (100 μL) were withdrawn at 0, 5, 10, 15, 20 and 30 min and quenched with 200 μL acetonitrile containing internal standard. Concomitant NADPH-free control incubations were prepared similarly.

[3] = Liver microsomal stability, human; format: in vitro ADME; conditions: protein 0.5 mg/mL
Protocol: as §1

[4] = male, C57BL6J, mouse, plasma, po, 250 mg/kg, mouse, 250 mg/kg GE + 50 mg/kg KTZ oral, +KTZ −βgd

AUClast Ratio ([1]; +KTZ +βgd, reference GE group co-administered with KTZ untreated with βgd): 23
AUClast Ratio ([1]; +KTZ +βgd, reference GE group untreated with βgd): 1330
AUClast Ratio ([1]; +KTZ −βgd, reference GE group untreated with βgd): 59
Concentration Ratio (Total/Free) of GE Phenolics ([1]; 0 h): 0
Concentration Ratio (Total/Free) of GE Phenolics ([1]; 0.087 h): 532
Concentration Ratio (Total/Free) of GE Phenolics ([1]; 0.167 h): 439
Concentration Ratio (Total/Free) of GE Phenolics ([1]; 0.25 h): 653
Concentration Ratio (Total/Free) of GE Phenolics ([1]; 0.5 h): 948
Concentration Ratio (Total/Free) of GE Phenolics ([1]; 1 h): 16
Concentration Ratio (Total/Free) of GE Phenolics ([1]; 2 h): 44
Concentration Ratio (Total/Free) of GE Phenolics ([1]; 3 h): 29
Concentration Ratio (Total/Free) of GE Phenolics ([1]; 4 h): 14
Concentration Ratio (Total/Free) of GE Phenolics ([1]; 6 h): 23
Concentration Ratio (Total/Free) of GE Phenolics ([1]; 8 h): 0
Concentration Ratio (Total/Free) of GE Phenolics ([1]; 12 h): 0
AUC(0-t) [1, 4]: 59.1 ng·h/mL
Cmax [1, 4]: 45.7 ng/mL
Tmax [1, 4]: 30 min
concentration at 0 h ([1]; male, C57BL6J, 250 mg/kg GE oral, 0 h): 0 ng/mL
concentration at 0.087 h ([1]; male, C57BL6J, 250 mg/kg GE oral, 0.087 h): 0.58 ± 0.45 ng/mL
concentration at 0.167 h ([1]; male, C57BL6J, 250 mg/kg GE oral, 0.167 h): 0.2 ± 0.14 ng/mL
concentration at 0.25 h ([1]; male, C57BL6J, 250 mg/kg GE oral, 0.25 h): 0.11 ± 0.05 ng/mL
concentration at 0.5 h ([1]; male, C57BL6J, 250 mg/kg GE oral, 0.5 h): 0.23 ± 0.08 ng/mL
concentration at 1 h ([1]; male, C57BL6J, 250 mg/kg GE oral, 1 h): 0.42 ± 0.42 ng/mL
concentration at 2 h ([1]; male, C57BL6J, 250 mg/kg GE oral, 2 h): 0.43 ± 0.11 ng/mL
concentration at 3 h ([1]; male, C57BL6J, 250 mg/kg GE oral, 3 h): 0.81 ± 0.66 ng/mL
concentration at 4 h ([1]; male, C57BL6J, 250 mg/kg GE oral, 4 h): 0.51 ± 0.33 ng/mL
concentration at 6 h ([1]; male, C57BL6J, 250 mg/kg GE oral, 6 h): 0.49 ± 0.3 ng/mL
concentration at 8 h ([1]; male, C57BL6J, 250 mg/kg GE oral, 8 h): 0.57 ± 0.23 ng/mL
concentration at 12 h ([1]; male, C57BL6J, 250 mg/kg GE oral, 12 h): 0.1 ± 0.05 ng/mL
concentration at 0 h ([1]; male, C57BL6J, 250 mg/kg GE with 50 mg/kg ketoconazole oral, 0 h): 0 ng/mL
concentration at 0.087 h ([1]; male, C57BL6J, 250 mg/kg GE with 50 mg/kg ketoconazole oral, 0.087 h): 0.48 ± 0.2 ng/mL
concentration at 0.167 h ([1]; male, C57BL6J, 250 mg/kg GE with 50 mg/kg ketoconazole oral, 0.167 h): 0.63 ± 0.12 ng/mL
concentration at 0.25 h ([1]; male, C57BL6J, 250 mg/kg GE with 50 mg/kg ketoconazole oral, 0.25 h): 6.93 ± 9.15 ng/mL
concentration at 0.5 h ([1]; male, C57BL6J, 250 mg/kg GE with 50 mg/kg ketoconazole oral, 0.5 h): 7560 ng/mL
concentration at 1 h ([1]; male, C57BL6J, 250 mg/kg GE with 50 mg/kg ketoconazole oral, 1 h): 17.9 ± 19.1 ng/mL
concentration at 2 h ([1]; male, C57BL6J, 250 mg/kg GE with 50 mg/kg ketoconazole oral, 2 h): 16300 ng/mL
concentration at 3 h ([1]; male, C57BL6J, 250 mg/kg GE with 50 mg/kg ketoconazole oral, 3 h): 11.7 ± 7.35 ng/mL
concentration at 4 h ([1]; male, C57BL6J, 250 mg/kg GE with 50 mg/kg ketoconazole oral, 4 h): 2.25 ± 1.56 ng/mL
concentration at 6 h ([1]; male, C57BL6J, 250 mg/kg GE with 50 mg/kg ketoconazole oral, 6 h): 3.71 ± 2.18 ng/mL
concentration at 8 h ([1]; male, C57BL6J, 250 mg/kg GE with 50 mg/kg ketoconazole oral, 8 h): 1.17 ± 0.11 ng/mL
concentration at 12 h ([1]; male, C57BL6J, 250 mg/kg GE with 50 mg/kg ketoconazole oral, 12 h): 0.67 ± 0.17 ng/mL
remaining at 0.5 h, 10 µM ([2]; CD1, pooled liver microsomes, pH 7.4, substrate 10 µM, n = 2, read-out: % Remaining at 30 min): 3%
Intrinsic Clearance ([2]; mouse liver microsomes, substrate 10 µM, 45 mg protein/g liver): 15.1 mL/min/g Liver
remaining at 0.5 h, 10 µM ([3]; both sexes, pooled liver microsomes, pH 7.4, substrate 10 µM, n = 2, read-out: % Remaining at 30 min): 1%
Intrinsic Clearance ([3]; human liver microsomes, substrate 10 µM, 45 mg protein/g liver): 8.5 mL/min/g Liver
Compound: CCCCCCCC(O)CC(=O)CCc1ccc(O)c(OC)c1 (stereo not shown) [8G, 8-gingerol]
